Data on 6 compounds can be found in patent US20080021038A1, “Novel Piperidine/8-Azabicyclo [3.2.1.] Octan Derivatives As Modulators Of Chemokine Receptor Ccr5” (priority 2004, published 2008).

The target in this test is recombinant human CCR5 receptor (Homo sapiens, UniProt P51681). The test can be described thus: MIP-1α radioligand binding assay (scintillation proximity). Conditions: displacement of 0.1 nM iodinated MIP-1α; membranes from Chinese hamster ovary cells expressing recombinant human CCR5; average if tested more than once. As to the method: The ability of compounds to inhibit the binding of MIP-1α was assessed by an in vitro radioligand binding assay. Membranes were prepared from Chinese hamster ovary cells which expressed the recombinant human CCR5 receptor. These membranes were incubated with 0.1 nM iodinated MIP-1α, scintillation proximity beads and various concentrations of the compounds of the invention in 96-well plates. The amount of iodinated MIP-1α bound to the receptor was determined by scintillation counting. Competition curves were obtained for compounds and the concentration of compound which displaced 50% of bound iodinated MIP-1α was calculated (IC50).
recombinant human CCR5 receptor, sequence (P51681 whole entry): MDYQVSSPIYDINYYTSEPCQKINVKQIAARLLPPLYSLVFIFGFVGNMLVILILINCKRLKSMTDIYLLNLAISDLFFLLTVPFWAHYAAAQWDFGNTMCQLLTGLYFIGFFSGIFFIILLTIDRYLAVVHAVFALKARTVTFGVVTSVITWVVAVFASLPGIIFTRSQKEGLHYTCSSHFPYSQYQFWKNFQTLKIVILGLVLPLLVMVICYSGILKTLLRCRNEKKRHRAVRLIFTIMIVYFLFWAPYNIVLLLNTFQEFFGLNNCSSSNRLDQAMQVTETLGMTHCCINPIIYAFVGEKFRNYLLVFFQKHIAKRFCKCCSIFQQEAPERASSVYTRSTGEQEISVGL
In Table X the results are presented as Pic50 values. A Pic50 value is the negative log (to base 10) of the IC50 result, so an IC50 of 1 μM (that is 1×10^−6M) gives a Pic50 of 6. If a compound was tested more than once then the data below is an average of the probative tests results.

A word on the IC50: it is the concentration that inhibits the measured activity by half. `CC1(CCS(=O)(=O)C2CCN(C(=O)OCc3ccccc3)CC2)CCN(CC[C@@H](c2cc(F)cc(F)c2)C2CCN(S(C)(=O)=O)CC2)CC1` [Table VIII Compound 1, benzyl 4-{[2-(1-{(3R)-3-(3,5-difluorophenyl)-3-[1-(methylsulfonyl)piperidin-4-yl]propyl}-4-methylpiperidin-4-yl)ethyl]sulfonyl}piperidine-1-carboxylate]: the IC50 is 7.94 nM.
The result for `COc1ccc(S(=O)(=O)CCC2(C)CCN(CC[C@@H](c3cc(F)cc(F)c3)N3CCN(S(C)(=O)=O)CC3)CC2)cc1` [Table II Compound 20, 1-[(1S)-1-(3,5-difluorophenyl)-3-(4-{2-[(4-methoxyphenyl)sulfonyl]ethyl}-4-methylpiperidin-1-yl)propyl]-4-(methylsulfonyl)piperazine] reads 5.01 nM; that for `CC1(CCS(=O)(=O)c2ccc(S(C)(=O)=O)cc2)CCN(CC[C@@H](c2ccccc2)N2CCN(S(C)(=O)=O)CC2)CC1` [Table II Compound 18, 1-{(1S)-3-[4-methyl-4-(2-{[4-(methylsulfonyl)phenyl]sulfonyl}ethyl)piperidin-1-yl]-11-phenylpropyl)-4-(methylsulfonyl)piperazine], 0.631 nM; that for `CC1(CCS(=O)(=O)c2ccc(S(C)(=O)=O)cc2)CCN(CC[C@@H](c2cc(F)cc(F)c2)N2CCN(S(C)(=O)=O)CC2)CC1` [Table II Compound 19, 1-{(1S)-1-(3,5-difluorophenyl)-3-[4-methyl-4-(2-{[4-(methylsulfonyl)phenyl]sulfonyl}ethyl)piperidin-1-yl]propyl}-4-(methylsulfonyl)piperazine], 2 nM.
Consider `CC1(CCS(=O)(=O)C2CCN(S(C)(=O)=O)CC2)CCN(CC[C@@H](c2cc(F)cc(F)c2)C2CCN(S(C)(=O)=O)CC2)CC1` [Table VIII Compound 2, 1-{(3R)-3-(3,5-difluorophenyl)-3-[1-(methylsulfonyl)piperidin-4-yl]propyl}-4-methyl-4-(2-{[1-(methylsulfonyl)piperidin-4-yl]sulfonyl}ethyl)piperidine], for which the IC50 is 2 nM.
The result for `CC1(CCS(=O)(=O)c2ccc(S(C)(=O)=O)cc2)CCN(CC[C@H](c2ccc(S(C)(=O)=O)cc2)c2cc(F)cc(F)c2)CC1` [Table I Compound 1, 1-{(3R)-3-(3,5-difluorophenyl)-3-[4-(methylsulfonyl)phenyl]propyl}-4-methyl-4-(2-{[4-(methylsulfonyl)phenyl]sulfonyl}ethyl)piperidine] reads 0.251 nM.
